Assay results reported in patent US9192678B2, “Modified hyaluronic acid polymer compositions and related methods” (priority 2009, dated 2015).

Test system: medial femoral condyle cartilage of goat stifle joint
Test: Modified Mankin score of femoral cartilage after intra-articular injection in goats (Example 34)
Assay type: in vivo
Experimental: A lightly crosslinked hydrogel prepared by reaction of vinyl-sulfone-modified hyaluronic acid with PEG-dithiol (HA-VS-PEG-(SH)2), containing the corticosteroid, triamcinolone acetonide, was injected into the intraarticular space of the stifle joint of female goats. Morphological, synovial fluid and histological examinations were conducted to evaluate local and systemic effects of such injections. Details of the study are provided below.
All test materials were stored at room temperature prior to use. For each Test or Control Material, a 1.5 ml dosage was prepared for each individual intra-articular injection.
A standard technique was used to inject each stifle joint, A 2-inch by 21 gauge sized sterile needle was introduced into the intra-articular space via an anteromedial approach. The lateral intercondylar notch wall of the medial femoral condyle was felt and the needle backed slightly off. 1.5 ml of the appropriate Test Material was injected into the right joint. The injection needle was removed and pressure was maintained on the injection site. The injected stifle joint was then cycled 20-times through a full range of motion. Immediately following this, the left stifle joint was cleansed with chlorohexidine scrub alternating with 70% isopropyl alcohol three times and painted with iodine solution and 1.5 ml of the Control Material was injected into the left stifle joint in a similar manner as described above for the right stifle. The injection needle was removed and pressure maintained on the injection site. The injected stifle joint was then cycled 20-times through a full range of motion.
Necropsy: Animals were humanely sacrificed at either 14 days or 28 days day post initial injection with an intravenous injection consisting of Diazepam 0.22 mg/kg and Ketamine 10 mg/kg for induction of general anesthesia. Following this, the anesthetized animals were given an IV overdose of concentrated potassium chloride (KCl) until the cardiac arrest had been verified.
Immediately after dissection and following gross joint surface evaluation a sagital section of each joint was cut through the medial femoral condyle (MFC). These sections were placed individually in 10% neutral buffered formalin. The fixed tissue was shipped by overnight carrier to Premier Laboratories for processing. The right and left MFC sections were processed using standard histological techniques and stained with hematoxylin and eosin (H&E) and Safranin-O (SAF-O) with a fast green counter stain. The slides from the MFC sections were evaluated by the Mankin Scoring System for osteoarthritis as described in Table 12.

[1] = 28 day group, animal died prematurely (3837: 24 days, 3588: 19 days on study), not included in averages

**Q.** For `CC1(C)O[C@@H]2C[C@H]3[C@@H]4CCC5=CC(=O)C=C[C@]5(C)[C@@]4(F)[C@@H](O)C[C@]3(C)[C@]2(C(=O)CO)O1` [Triamcinolone Acetonide 2 mg/ml, triamcinolone acetonide], which “Cells (modified Mankin), MEAN” value (female, goat, in vivo, 14 days) is on record?
**A.** Its value is 0.7.

**Q.** And the “Safranin-O Stain (modified Mankin), MEAN” value (female, goat, in vivo, 14 days)?
**A.** Its value is 3.0.

**Q.** What about the “Structure (modified Mankin), MEAN” value (female, goat, in vivo, 14 days) of the same compound?
**A.** The value was 2.7.

**Q.** And the “Tide Mark Integrity (modified Mankin)” value (female, goat, in vivo, 14 days)?
**A.** Its value is 0.0.

**Q.** What about the “Tide Mark Integrity (modified Mankin), MEAN” value (“Tide Mark Integrity … MEAN” for short) (female, goat, in vivo, 14 days) of the same compound?
**A.** The value was 0.0.

**Q.** And the “Total Mankin Score, MEAN” value (female, goat, in vivo, 14 days)?
**A.** Its value is 6.3.

**Q.** And the “Cells (modified Mankin), MEAN” value (female, goat, in vivo, 28 days)?
**A.** The value was 2.3.

**Q.** What about the “Safranin-O Stain (modified Mankin), MEAN” value (female, goat, in vivo, 28 days) of the same compound?
**A.** The value was 3.3.

**Q.** And the “Structure (modified Mankin), MEAN” value (female, goat, in vivo, 28 days)?
**A.** The value was 2.7.

**Q.** And the “Tide Mark Integrity (modified Mankin)” value (female, goat, in vivo, 28 days)?
**A.** Its value is 0.0.

**Q.** What about the “Tide Mark Integrity … MEAN” value (female, goat, in vivo, 28 days) of the same compound?
**A.** Its value is 0.0.

**Q.** And the “Total Mankin Score, MEAN” value (female, goat, in vivo, 28 days)?
**A.** Its value is 8.3.

**Q.** How did the “Cells (modified Mankin)” value [1] turn out when `CC1(C)O[C@@H]2C[C@H]3[C@@H]4CCC5=CC(=O)C=C[C@]5(C)[C@@]4(F)[C@@H](O)C[C@]3(C)[C@]2(C(=O)CO)O1` [Triamcinolone Acetonide 8 mg/ml, triamcinolone acetonide] was run?
**A.** The value was 3.0.

**Q.** What about the “Safranin-O Stain (modified Mankin)” value [1] of the same compound?
**A.** Its value is 3.0.

**Q.** What about the “Structure (modified Mankin)” value [1] of the same compound?
**A.** Its value is 4.0.

**Q.** What about the “Tide Mark Integrity (modified Mankin)” value [1] of the same compound?
**A.** The value was 0.0.

**Q.** What about the “Total Mankin Score” value [1] of the same compound?
**A.** Its value is 10.0.

**Q.** What about the “Cells (modified Mankin), MEAN” value (female, goat, in vivo, 14 days) of the same compound?
**A.** Its value is 0.3.

**Q.** And the “Safranin-O Stain (modified Mankin), MEAN” value (female, goat, in vivo, 14 days)?
**A.** Its value is 3.3.

**Q.** What about the “Structure (modified Mankin), MEAN” value (female, goat, in vivo, 14 days) of the same compound?
**A.** Its value is 1.7.

**Q.** What about the “Tide Mark Integrity (modified Mankin)” value (female, goat, in vivo, 14 days) of the same compound?
**A.** Its value is 0.0.

**Q.** And the “Tide Mark Integrity … MEAN” value (female, goat, in vivo, 14 days)?
**A.** The value was 0.0.

**Q.** What about the “Total Mankin Score, MEAN” value (female, goat, in vivo, 14 days) of the same compound?
**A.** The value was 5.3.

**Q.** What about the “Cells (modified Mankin), MEAN” value (female, goat, in vivo, 28 days) of the same compound?
**A.** Its value is 2.0.

**Q.** And the “Safranin-O Stain (modified Mankin)” value (female, goat, in vivo, 28 days)?
**A.** The value was 4.0.

**Q.** What about the “Safranin-O Stain (modified Mankin), MEAN” value (female, goat, in vivo, 28 days) of the same compound?
**A.** Its value is 4.0.

**Q.** And the “Structure (modified Mankin), MEAN” value (female, goat, in vivo, 28 days)?
**A.** The value was 3.0.

**Q.** And the “Tide Mark Integrity (modified Mankin)” value (female, goat, in vivo, 28 days)?
**A.** The value was 0.0.

**Q.** And the “Tide Mark Integrity … MEAN” value (female, goat, in vivo, 28 days)?
**A.** Its value is 0.0.

**Q.** What about the “Total Mankin Score, MEAN” value (female, goat, in vivo, 28 days) of the same compound?
**A.** The value was 9.0.
